The values below come from ChEMBL document CHEMBL5291721, “A preclinical secondary pharmacology resource illuminates target-adverse drug reaction associations of marketed drugs” (Nat Commun, 2023).

As a reminder, the AC50 is the concentration giving half of the maximal activity seen.

One test concerns the target Acetylcholinesterase (Homo sapiens, UniProt P22303). The class given is functional.
Test [1] deals with T1, Alpha-1A adrenergic receptor (Homo sapiens, UniProt P35348).
T1 sequence (P35348 whole entry): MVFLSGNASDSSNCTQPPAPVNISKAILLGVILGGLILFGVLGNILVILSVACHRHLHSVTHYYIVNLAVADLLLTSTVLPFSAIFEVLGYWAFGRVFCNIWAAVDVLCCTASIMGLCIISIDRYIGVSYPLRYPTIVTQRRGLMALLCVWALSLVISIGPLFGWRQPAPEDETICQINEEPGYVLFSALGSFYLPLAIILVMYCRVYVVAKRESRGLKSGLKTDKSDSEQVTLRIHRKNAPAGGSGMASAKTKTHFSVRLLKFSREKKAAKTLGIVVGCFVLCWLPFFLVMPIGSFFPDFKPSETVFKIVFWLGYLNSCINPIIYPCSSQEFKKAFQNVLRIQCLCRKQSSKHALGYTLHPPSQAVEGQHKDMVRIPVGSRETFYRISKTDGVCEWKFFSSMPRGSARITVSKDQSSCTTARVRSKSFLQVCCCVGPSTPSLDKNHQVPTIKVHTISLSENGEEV
The format is functional, cell-based.

For test [2], the target named is T1, Alpha-1A adrenergic receptor. The format is functional, cell-based. The source holds these as a separate data set.
Test [3] addresses T2, Muscarinic acetylcholine receptor M1 (Homo sapiens, UniProt P11229).
T2 sequence (P11229 whole entry): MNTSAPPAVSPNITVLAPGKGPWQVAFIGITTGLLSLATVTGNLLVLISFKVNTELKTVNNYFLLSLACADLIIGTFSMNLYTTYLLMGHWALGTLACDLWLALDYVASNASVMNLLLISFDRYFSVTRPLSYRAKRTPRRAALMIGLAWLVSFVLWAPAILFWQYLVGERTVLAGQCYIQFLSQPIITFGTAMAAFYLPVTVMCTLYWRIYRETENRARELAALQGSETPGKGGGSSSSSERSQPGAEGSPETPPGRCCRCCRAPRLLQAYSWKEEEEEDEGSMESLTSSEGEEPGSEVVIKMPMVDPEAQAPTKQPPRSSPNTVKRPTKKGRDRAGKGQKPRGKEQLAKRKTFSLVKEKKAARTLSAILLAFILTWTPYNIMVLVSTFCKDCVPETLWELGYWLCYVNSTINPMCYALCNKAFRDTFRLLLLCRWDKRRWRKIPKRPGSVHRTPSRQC
The format is functional, cell-based.

For test [4], the target named is T3, Amine oxidase [flavin-containing] A (Homo sapiens, UniProt P21397).
T3 sequence (P21397 whole entry): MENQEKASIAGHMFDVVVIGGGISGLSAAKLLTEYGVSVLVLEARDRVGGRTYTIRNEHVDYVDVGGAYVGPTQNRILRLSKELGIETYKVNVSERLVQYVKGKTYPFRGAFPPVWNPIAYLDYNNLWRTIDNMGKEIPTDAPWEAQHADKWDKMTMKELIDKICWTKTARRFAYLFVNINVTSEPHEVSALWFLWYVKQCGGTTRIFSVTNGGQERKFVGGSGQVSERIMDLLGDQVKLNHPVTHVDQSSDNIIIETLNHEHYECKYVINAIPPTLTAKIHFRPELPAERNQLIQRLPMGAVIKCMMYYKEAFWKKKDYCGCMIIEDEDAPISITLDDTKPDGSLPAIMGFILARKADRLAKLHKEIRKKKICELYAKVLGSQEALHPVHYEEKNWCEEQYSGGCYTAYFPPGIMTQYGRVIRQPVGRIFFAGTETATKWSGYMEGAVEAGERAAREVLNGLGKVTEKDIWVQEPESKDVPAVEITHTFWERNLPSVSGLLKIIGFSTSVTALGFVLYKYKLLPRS
The class given is functional.

Test [5] has as its target Prostaglandin G/H synthase 1 (Homo sapiens, UniProt P23219). The class given is functional.
Test [6] has as its target T1, Alpha-1A adrenergic receptor. The format is functional, cell-based. The source holds these as a separate data set.
Test [7] concerns the target T2, Muscarinic acetylcholine receptor M1. The format is functional.
Test [8] concerns the target Gamma-aminobutyric acid receptor subunit alpha-1 (Rattus norvegicus, UniProt P62813).
The next test addresses Histamine H2 receptor (Homo sapiens, UniProt P25021). The format is functional, cell-based.
The target in test [9] is 5-hydroxytryptamine receptor 2A (Homo sapiens, UniProt P28223). The class given is functional, cell-based.
5-hydroxytryptamine receptor 2A, sequence (P28223 whole entry): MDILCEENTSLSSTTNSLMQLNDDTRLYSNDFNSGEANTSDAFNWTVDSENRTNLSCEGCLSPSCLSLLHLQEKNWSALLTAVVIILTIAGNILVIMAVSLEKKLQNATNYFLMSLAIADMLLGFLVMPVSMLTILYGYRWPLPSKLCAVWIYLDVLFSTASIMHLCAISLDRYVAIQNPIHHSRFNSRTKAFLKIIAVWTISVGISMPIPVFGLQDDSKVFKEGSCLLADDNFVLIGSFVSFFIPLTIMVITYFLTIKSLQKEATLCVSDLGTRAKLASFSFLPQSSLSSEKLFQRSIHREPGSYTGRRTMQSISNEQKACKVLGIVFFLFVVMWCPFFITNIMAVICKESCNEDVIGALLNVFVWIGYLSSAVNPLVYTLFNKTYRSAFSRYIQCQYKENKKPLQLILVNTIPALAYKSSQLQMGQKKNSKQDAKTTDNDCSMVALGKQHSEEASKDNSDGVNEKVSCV
The next test concerns the target T4, Thromboxane A2 receptor (Homo sapiens, UniProt P21731).
T4 sequence (P21731 whole entry): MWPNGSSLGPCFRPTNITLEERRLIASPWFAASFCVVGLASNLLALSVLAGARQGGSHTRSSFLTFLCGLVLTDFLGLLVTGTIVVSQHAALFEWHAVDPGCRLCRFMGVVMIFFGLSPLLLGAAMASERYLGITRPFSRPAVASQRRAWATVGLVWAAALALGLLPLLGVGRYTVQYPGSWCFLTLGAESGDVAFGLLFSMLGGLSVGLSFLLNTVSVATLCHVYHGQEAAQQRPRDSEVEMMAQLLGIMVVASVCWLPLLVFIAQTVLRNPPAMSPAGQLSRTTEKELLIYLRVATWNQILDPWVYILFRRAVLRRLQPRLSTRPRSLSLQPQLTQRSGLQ

The target in another test is Histamine H3 receptor (Homo sapiens, UniProt Q9Y5N1).
Histamine H3 receptor, sequence (Q9Y5N1 whole entry): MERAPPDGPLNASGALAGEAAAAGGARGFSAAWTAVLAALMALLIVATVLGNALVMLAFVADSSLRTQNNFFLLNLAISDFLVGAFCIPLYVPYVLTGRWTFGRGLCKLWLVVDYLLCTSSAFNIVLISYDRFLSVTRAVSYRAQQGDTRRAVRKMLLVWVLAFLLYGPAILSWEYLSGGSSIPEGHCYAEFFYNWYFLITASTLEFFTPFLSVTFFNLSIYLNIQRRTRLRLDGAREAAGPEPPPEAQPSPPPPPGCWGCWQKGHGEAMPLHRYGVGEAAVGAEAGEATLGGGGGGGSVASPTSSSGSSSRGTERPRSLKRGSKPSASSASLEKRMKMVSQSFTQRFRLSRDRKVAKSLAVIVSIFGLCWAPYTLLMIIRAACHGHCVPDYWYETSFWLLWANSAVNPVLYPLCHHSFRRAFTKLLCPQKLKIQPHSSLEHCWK
Note: assay procedure not described here.

Prostaglandin G/H synthase 1, sequence (P23219 whole entry): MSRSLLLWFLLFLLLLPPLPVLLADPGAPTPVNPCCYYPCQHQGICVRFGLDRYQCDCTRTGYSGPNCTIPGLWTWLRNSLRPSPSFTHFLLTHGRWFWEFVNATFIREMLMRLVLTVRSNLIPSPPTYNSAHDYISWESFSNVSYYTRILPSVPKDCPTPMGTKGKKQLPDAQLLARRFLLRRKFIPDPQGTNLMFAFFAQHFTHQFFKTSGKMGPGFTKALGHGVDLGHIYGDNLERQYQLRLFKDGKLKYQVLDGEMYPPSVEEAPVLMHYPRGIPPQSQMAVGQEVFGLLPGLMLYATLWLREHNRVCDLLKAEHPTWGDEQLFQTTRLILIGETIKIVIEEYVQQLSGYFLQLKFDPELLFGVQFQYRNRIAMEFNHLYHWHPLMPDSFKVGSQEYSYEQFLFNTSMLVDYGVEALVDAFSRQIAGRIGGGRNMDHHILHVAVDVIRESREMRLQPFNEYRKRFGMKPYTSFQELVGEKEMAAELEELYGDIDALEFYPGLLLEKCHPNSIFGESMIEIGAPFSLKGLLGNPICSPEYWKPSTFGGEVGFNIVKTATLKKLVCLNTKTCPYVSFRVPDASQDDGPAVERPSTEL
Acetylcholinesterase, sequence (P22303 whole entry): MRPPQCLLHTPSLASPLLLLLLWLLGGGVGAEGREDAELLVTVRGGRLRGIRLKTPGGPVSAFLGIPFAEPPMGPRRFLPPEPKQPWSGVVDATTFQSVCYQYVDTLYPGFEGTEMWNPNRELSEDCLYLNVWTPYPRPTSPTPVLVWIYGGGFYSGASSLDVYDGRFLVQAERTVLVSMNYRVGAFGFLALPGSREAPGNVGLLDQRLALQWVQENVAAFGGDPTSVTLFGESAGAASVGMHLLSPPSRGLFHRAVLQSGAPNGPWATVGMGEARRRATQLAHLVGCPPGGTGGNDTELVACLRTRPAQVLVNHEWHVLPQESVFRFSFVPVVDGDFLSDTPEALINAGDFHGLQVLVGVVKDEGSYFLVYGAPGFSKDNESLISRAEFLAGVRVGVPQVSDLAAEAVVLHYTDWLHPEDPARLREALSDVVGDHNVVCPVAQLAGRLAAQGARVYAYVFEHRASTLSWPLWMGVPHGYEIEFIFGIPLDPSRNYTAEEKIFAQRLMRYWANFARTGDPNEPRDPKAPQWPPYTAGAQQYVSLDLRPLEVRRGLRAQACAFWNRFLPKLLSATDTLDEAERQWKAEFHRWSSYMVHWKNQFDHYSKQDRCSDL
Histamine H2 receptor, sequence (P25021 whole entry): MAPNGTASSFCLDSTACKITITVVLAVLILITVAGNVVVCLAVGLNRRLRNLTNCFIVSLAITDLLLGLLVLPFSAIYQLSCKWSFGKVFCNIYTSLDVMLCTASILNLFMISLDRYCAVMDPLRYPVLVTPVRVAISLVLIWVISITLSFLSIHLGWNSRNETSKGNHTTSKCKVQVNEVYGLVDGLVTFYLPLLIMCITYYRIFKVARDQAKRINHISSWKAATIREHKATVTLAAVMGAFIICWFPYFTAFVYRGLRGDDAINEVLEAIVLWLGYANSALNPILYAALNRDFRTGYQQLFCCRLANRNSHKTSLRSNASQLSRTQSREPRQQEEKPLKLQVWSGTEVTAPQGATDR
Gamma-aminobutyric acid receptor subunit alpha-1, sequence (P62813 whole entry): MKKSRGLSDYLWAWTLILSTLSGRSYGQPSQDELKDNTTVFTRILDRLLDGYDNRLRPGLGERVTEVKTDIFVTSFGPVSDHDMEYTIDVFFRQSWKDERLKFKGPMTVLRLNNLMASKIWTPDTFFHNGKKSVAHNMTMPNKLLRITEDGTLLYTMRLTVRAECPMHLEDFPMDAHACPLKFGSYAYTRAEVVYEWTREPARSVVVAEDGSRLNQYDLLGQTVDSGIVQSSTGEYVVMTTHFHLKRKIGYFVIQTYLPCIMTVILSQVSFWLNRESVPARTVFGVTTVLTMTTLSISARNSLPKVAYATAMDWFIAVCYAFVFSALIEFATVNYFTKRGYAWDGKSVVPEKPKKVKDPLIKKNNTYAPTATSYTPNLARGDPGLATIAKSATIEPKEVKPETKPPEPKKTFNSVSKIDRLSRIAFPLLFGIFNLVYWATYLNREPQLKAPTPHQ

As to `Oc1c(Cl)cc(Cl)c2cccnc12` [CHLOROXINE], the AC50 was more than 30 µM at Acetylcholinesterase; more than 30 µM in test [1]; more than 30 µM in test [2]; more than 30 µM in [3]; more than 30 µM in test [4]; more than 0.3 µM in [5].

Consider `CN(C)[C@@H](c1cccc(O)c1)[C@H]1CCCC[C@H]1O` [CIRAMADOL], for which the concentration at half-maximal activity (AC50) (on Acetylcholinesterase; in test [1]; in test [2]; in test [3]; in test [4]; in test [5]) was more than 30 µM in each case.

For the compound `CN(C)CC(c1ccc(O)cc1)C1(O)CCCCC1` (stereo not drawn) [DESVENLAFAXINE], the half-maximal activity concentration (AC50) (at Acetylcholinesterase; in [1]; in [2]; in test [3]; in test [4]; in test [5]) was more than 30 µM throughout.

On to `Cc1cc(C#N)cc(C)c1Oc1nc(Nc2ccc(C#N)cc2)nc(N)c1Br` [ETRAVIRINE], for which the AC50 at Acetylcholinesterase was more than 30 µM; in [1], more than 10 µM; in [2] it was more than 3 µM; in test [3], 2.71 µM; in [4], more than 30 µM; in test [5], 20.4 µM.

Take `O=C(O)c1cc(O)ccc1O` [GENTISIC ACID]: the half-maximal activity concentration (AC50) (at Acetylcholinesterase; in test [1]; in test [2]; in [3]; in test [4]; in test [5]) was more than 30 µM in each case.

Consider `CC(C)Nc1ncccn1` [ISAXONINE], for which the AC50 (at Acetylcholinesterase; in test [1]; in test [2]; in [3]; in test [4]; in test [5]) was more than 30 µM each time.

Regarding `N[C@@H](C(=O)N[C@@H]1C(=O)N2C(C(=O)O)=C(Cl)CC[C@H]12)c1ccccc1` [LORACARBEF ANHYDROUS], the half-maximal activity concentration (AC50) (on Acetylcholinesterase; in test [1]; in [2]; in [3]; in test [4]; in test [5]) was more than 30 µM in each case.

As for `OCCN1C[C@H](O)[C@@H](O)[C@H](O)[C@H]1CO` [MIGLITOL], the half-maximal activity concentration (AC50) (on Acetylcholinesterase; in test [1]; in test [2]; in test [3]; in test [4]; in test [5]) was more than 30 µM in each case.

`CC(=O)N[C@@H]1[C@@H](O)[C@H](O)[C@@H](CO)O[C@H]1O` [N-ACETYLGLUCOSAMINE]: the AC50 (on Acetylcholinesterase; in test [1]; in test [2]; in test [3]; in test [4]; in [5]) was more than 30 µM each time.

`O=C(CCNNC(=O)c1ccncc1)NCc1ccccc1` [NIALAMIDE]: the AC50 at Acetylcholinesterase is more than 30 µM; in test [1], more than 30 µM; in [2], more than 30 µM; in test [3], more than 30 µM; in [4], more than 30 µM; in test [5], 8.28 µM.

Take `CC[C@H]1[C@@H](O)[C@@H]2[C@H](CC[C@]3(C)[C@@H]([C@H](C)CCC(=O)O)CC[C@@H]23)[C@@]2(C)CC[C@@H](O)C[C@@H]12` [OBETICHOLIC ACID]: the half-maximal activity concentration (AC50) (on Acetylcholinesterase; in [6]; in [1]; in test [2]; in test [3]; in test [7]) was more than 30 µM each time. Further, the AC50 is more than 30 µM in test [8]; more than 30 µM on Histamine H2 receptor; 11.5 µM in test [9]; more than 30 µM in [4]; more than 30 µM in test [5]; more than 30 µM on Thromboxane A2 receptor. This compound also came in with a half-maximal activity concentration (AC50) on Histamine H3 receptor of more than 30 µM.

As for `CC[N+]1(C)[C@@H]2CC(OC(=O)[C@H](CO)c3ccccc3)C[C@H]1[C@@H]1O[C@@H]12` (stereo partly drawn) [OXITROPIUM], the concentration at half-maximal activity (AC50) at Acetylcholinesterase was more than 30 µM; in test [1], more than 30 µM; in test [2], more than 30 µM; in test [3], 0.003 µM; in [4], more than 30 µM; in test [5] it was more than 30 µM.

With `CC(C)(C)NC[C@H](O)COc1ccccc1C1CCCC1` [PENBUTOLOL], the AC50 at Acetylcholinesterase is more than 30 µM; in test [1], more than 30 µM; in [2], 2.54 µM; in [3] it was 13.5 µM; in [4], more than 30 µM; in [5] it was 21.1 µM.

Take `CN(C)S(=O)(=O)c1ccc2c(c1)N(CCCN1CCC(CCO)CC1)c1ccccc1S2` [PIPOTIAZINE]: the AC50 was more than 30 µM on Acetylcholinesterase; more than 30 µM in [1]; 0.0032 µM in [2]; 7.84 µM in test [3]; more than 30 µM in test [4]; more than 30 µM in [5].

Take `CCC(=O)NCC[C@@H]1CCc2ccc3c(c21)CCO3` [RAMELTEON]: the AC50 (on Acetylcholinesterase; in [1]; in test [2]; in test [3]; in test [4]; in test [5]) was more than 30 µM in each case.

In the case of `CCOC(=O)[C@H](CCc1ccccc1)N[C@@H](C)C(=O)N1[C@H](C(=O)O)C[C@H]2CCCC[C@@H]21` [TRANDOLAPRIL], the AC50 (at Acetylcholinesterase; in test [1]; in [2]; in test [3]; in [4]; in [5]) was more than 30 µM each time.
